Reference: paper PMC6936879, “Inhibiting the copper efflux system in microbes as a novel approach for developing antibiotics” (PLoS ONE, 2019)

System: E. coli (BL21;DE3)
Assay: E. coli growth rate experiment (O.D. 600 nm) under copper stress
Type: cell-based
Conditions: M9 medium, 37 °C, value after 14 h incubation, 5 μM Cu(II) chloride in assay (sentence does not say with or without Cu(II)), mean ± SE, n = 5
Procedure: E. coli (BL21;DE3) growth rates were evaluated in 96-well microplates: in 200 μl of a poor medium comprising M9 medium. Incubation was for 16 h at 37°C with Copper(II) chloride (Sigma-Aldrich, St. Louis, MO, USA) at a concentration of 5 μM. Absorbance at 600 nm was measured every 30 min after stirring for 5 s in a 96-well plate reader (SPL Life Sciences, Gyeonggi, Korea). The buffer background was auto-subtracted. Each experiment was repeated five times under identical conditions.
Next, E. coli were grown in M9 medium for 16 h, and their growth rate was evaluated in the absence and presence of Cu(II) in the medium. In each sample, a different peptide was introduced to the medium, with the kanamycin as a positive control. […] Growth rate values for all peptides at various concentrations after 14 h of incubation are presented in Fig 3 (the growth rate curves are presented in Figs E to F in S1 File).
Fig 3 Effect of test peptides on the E. coli growth rate. E. coli cultures were grown as described in Methods. The growth rate values after a 14 h incubation in the medium in the presence (gray lines) and absence (black lines) of Cu(II). Concentrations of the test peptides: A. 50 μM, B. 75 μM, C. 100 μM, and D. 125 μM. *p < 0.05, MEAN ± SE, n = 5, a comparison between the values in the presence and absence of Cu(II). #p < 0.05, MEAN ± SE, n = 5, in the presence of Cu(II) and comparing between values of a buffer and peptide. t-test was used for the statistic evaluation.

AKIQG [pep8]
decrease in O.D. (600 nm) (peptide 50 μM): 45.5 ± 4.8%
decrease in O.D. (600 nm) (peptide 100 μM): 63.6 ± 4.0%
